Laboratory results taken from patent US4937244A, “Substituted 3-aminosydnonimines, processes for their preparation and their use” (Cassella Aktiengesellschaft, priority 1987, dated 1990).
Structures can show the parent of a compound that is named as a salt.

Test system: arteria pulmonalis of the guinea pig
Assay: Relaxing action on potassium-depolarized, CaCl2-contracted spiral strips of guinea pig pulmonary artery (modified method of Godfraind and Kaba and of Schuman et al)
Assay type: cell-based
Details: Cavia porcellus; spiral strips depolarized with 40 mmol/l potassium; contraction initiated with 0.5 mmol/l CaCl2; cumulative addition; mean value of 4 to 6 strips of vessel; read-out: IC50 (concentration of test substance which inhibits the contraction by 50%)
Excerpt: The pharmacological action of the compounds of the formula I has been determined by a modified method of Godfraind and Kaba (Arch. Int. Pharmacodyn. Ther. 196, (Suppl) 35 to 49, 1972) and of Schuman et al (Naunyn-Schmiedeberg's Arch Pharmacol. 289 409 to 418, 1975). […], spiral strips of the arteria pulmonalis of the guinea pig are depolarized with 40 mmol/l of potassium after equilibration in calcium-free tyrode solution. Addition of 0.5 mmol/l of CaCl2 then initiates a contraction. The relaxing action of the test substance is determined by cumulative addition in concentrations in steps of 1/2 log 10. The concentration of test substance which inhibits the contraction by 50% (=IC50, mol/l) is determined from the concentration/effects curve (abscissa: -log mol/l of test substance, ordinate: % inhibition of the maximum concentration, mean value of 4 to 6 strips of vessel).

| SMILES | IC50 |
| --- | --- |
| CC1(C)CCCC(C)(C)N1[n+]1cc(=N)o[n-]1 [a, 3-(2,2,6,6-Tetramethylpiperidino)-sydnonimine hydrochloride] | 30 µM |
| CC(C)N1CC(C)(C)N([n+]2cc(=N)o[n-]2)C(C)(C)C1 [b, 3-(2,2,6,6-Tetramethyl-4-isopropyl-piperazin-1-yl)sydnonimine dihydrochloride] | 3 µM |
| CC1(C)COCC(C)(C)N1[n+]1cc(=N)o[n-]1 [c, 3-(3,3,5,5-Tetramethylmorpholino)-sydnonimine hydrochloride] | 100 µM |
| CCOC(=O)[N-]c1cn(N2CCOCC2)n[o+]1 [d, N-Ethoxycarbonyl-3-morpholinosydnonimine, reference compound] | 300 µM |
